The subject of this data set is SKH-1 hairless mice. Kind of data set: SUV-induced mouse skin tumorigenesis, late-stage prevention model. The data set is classed as in vivo. On the procedure: Tumor volume was calculated according to the following formula: tumor volume (mm^3)=length×width×height×0.52. […] For 5B and 5C, data are represented as mean values±S.D. and differences were determined by one-way ANOVA. The asterisk (*) indicates a significant decrease compared to the group exposed to SUV only or the group treated with vehicle followed by SUV (***, p<0.001). […] Dorsal trunk skin samples were harvested and stained with H&E (left panels) or with an antibody to detect PCNA (right panels). […] Expression of PCNA was quantified using Image-Pro Plus software and stained cells were counted from 5 separate areas on each slide (lower panel). An average of 3 samples was calculated per group. Data are expressed as mean percent of control±S.D. and the asterisks indicate a significant difference in PCNA expression (***, p<0.001). […] The expression levels of phosphorylated and total proteins were analyzed by Western blot.
Mice were weighed once a week until week 28. […] SKH-1 hairless mice were treated as described in Materials and Methods. The mice in the control groups (n=9) received no vehicle/no SUV (n=3), vehicle/no SUV (n=3), or 1 mg compound 1/no SUV (n=3), respectively. The mice in the rest of the groups received SUV irradiation for 15 weeks 3 times a week. The mice in the vehicle/SUV-treated group (n=12) were treated with oil-in-water emulsion cream 3 times a week until the end of the experiment (28 weeks). The mice in the 0.1 mg/SUV or 1 mg/SUV groups (n=12 each) received treatment with compound 1 (0.1 or 1 mg, respectively) 3 times a week until the end of the experiment (28 weeks). The respective doses of oil-in-water emulsion cream or compound 1 were applied topically to the dorsal area. Tumor incidence and multiplicity were recorded weekly until the end of the experiment at week 28.
Female SKH-1 hairless mice were purchased from Charles River and were acclimated for 2 weeks before the study and had free access to food and water. All animals were maintained according to the guidelines approved by the University of Minnesota Institutional Animal Care and Use Committee (IACUC). The animals were housed in climate-controlled quarters with a 12-h light/dark cycle. The skin carcinogenesis experiments were conducted using 6-8 wk old mice with a mean body weight of 25 g. Skin carcinogenesis was induced by a solar simulated ultraviolet irradiation system. The SUV irradiation source (Q-Lab Corporation, Westlake, Ohio) emitted at wavelengths of 295 to 365 nm and the peak emission was 340 nm.
For the late-stage prevention model, the control and experimental groups were identical to those for the early prevention model. However, the experimental groups of mice were exposed to SUV irradiation 3 times a week for 15 weeks without application of vehicle or compound 1 in vehicle. At the end of 15 weeks, SUV exposure was stopped and application of vehicle with or without compound 1 was begun and continued for 13 weeks until week 28 at which time the study was discontinued and mice euthanized and tissues harvested.
At week 1, mice were irradiated with SUV at a dose of 36 kJ/m^2 UVA and 1.8 kJ/m^2 UVB. At week 6, the dose of SUV reached 60 kJ/m^2 UVA and 2.9 kJ/m^2 UVB and this dose was maintained from week 6 to week 15. The respective doses of vehicle or compound 1 were applied topically to the dorsal area. Mice were weighed and tumors were measured once a week until week 28 or when tumor load reached 1 cm^3 total volume. At that time mice were euthanized and one-half of each sample was immediately fixed in 10% formalin and processed for hematoxylin and eosin (H&E) staining and immunohistochemistry. The other one-half of the sample was frozen and used for Western blot analysis.
Skin tissues were embedded in paraffin and subjected to immunohistochemistry. Tissues were de-paraffinized and hydrated and then permeabilized with 0.5% Triton X-100/1×PBS for 10 min. […]

[1] abbreviates: late-stage model, topical 0.1 or 1 mg, vs vehicle-treated group, 28 weeks.

Here are results for one compound from patent publication US10487054B2, “Therapeutic compounds” (REGENTS OF THE UNIVERSITY OF MINNESOTA, priority 2017, dated 2019).

Regarding `O=C1Nc2ccc(C34CC5CC(CC(C5)C3)C4)cc2C1=NO` [compound 1, 5-(adamantan-1-yl)-3-(hydroxyimino)indolin-2-one], where the note is “late-stage model, H&E”, the epidermal thickness result was “dramatically decreased” and the “formation of SCCs” value is given as “inhibited”. The “SUV-induced phosphorylation of ERK1/2, p38, and JNKs in mouse skin” value (late-stage model, Western blot) is “dramatically suppressed”. Also, the “expression of PCNA” value (late-stage model, immunohistochemistry of skin) is given as “decreased”. Under setting [1], the tumor multiplicity result is given as “significantly reduced” and the tumor volume result was “significantly reduced”. Also, the malignancy rate entry (late-stage model, vs vehicle-treated mice) was “significantly decreased”. Further, the SUV-induced tumor incidence result (late-stage prevention group) is recorded as “substantial suppression”. For the same compound, the body weight result (topical application on dorsal skin, late-stage model, to week 28) is on record as “no effect on body weight”.
